What all share (assay type): nucleic-acid assay
In test [1] the test system is Nucleic Acid. Briefly: Binding affinity to 3'-r(CUUCCAGUUACAUAGAGA)-5' RNA assessed as fluorescence quenching by spectrophotometry.
In test [2] the test system is Nucleic Acid. Put plainly: Binding affinity to 3'-r(CUUCCAGUUCCAUAGAGA)-5' RNA assessed as fluorescence quenching by spectrophotometry.
The test system of test [3] is Nucleic Acid. Briefly: Binding affinity to 3'-r(CUUCCAGUUUCAUAGAGA)-5' RNA assessed as fluorescence quenching by spectrophotometry.
Test [4] relates to Nucleic Acid. Put plainly: Binding affinity to 3'-r(CUUCCAGUUGCAUAGAGA)-5' RNA assessed as fluorescence quenching by spectrophotometry.

Calls of active or inactive are those of the source. The calls are words filed in the database; no cut-off is given here.

In the case of `Cc1cn([C@H]2C[C@H](OP(=O)(O)OC[C@H]3O[C@@H](n4ccc(N)nc4=O)C[C@@H]3OP(=O)(O)OC[C@H]3O[C@@H](n4cnc5c(N)ncnc54)C[C@@H]3OP(=O)(O)OC[C@H]3O[C@@H](n4cnc5c(N)ncnc54)C[C@@H]3OP(=O)(O)OC[C@H]3O[C@@H](n4cnc5c(N)ncnc54)C[C@@H]3OP(=O)(O)OC[C@H](Cn3cnc4cc5c(N)ncnc5nc43)OP(=O)(O)OC[C@H]3O[C@@H](n4cnc5c(=O)[nH]c(N)nc54)C[C@@H]3OP(=O)(O)CC[C@H]3O[C@@H](n4cc(C)c(=O)[nH]c4=O)C[C@@H]3OP(=O)(O)OC[C@H]3O[C@@H](n4cnc5c(N)ncnc54)C[C@@H]3OP(=O)(O)OC[C@H]3O[C@@H](n4cc(C)c(=O)[nH]c4=O)C[C@@H]3OP(=O)(O)OC[C@H]3O[C@@H](n4ccc(N)nc4=O)C[C@@H]3OP(=O)(O)OC[C@H]3O[C@@H](n4cc(C)c(=O)[nH]c4=O)C[C@@H]3OP(=O)(O)OC[C@H]3O[C@@H](n4ccc(N)nc4=O)C[C@@H]3OP(=O)(O)OC[C@H]3O[C@@H](n4cc(C)c(=O)[nH]c4=O)C[C@@H]3O)[C@@H](COP(=O)(O)O[C@H]3C[C@H](n4cnc5c(=O)[nH]c(N)nc54)O[C@@H]3COP(=O)(O)O[C@H]3C[C@H](n4cnc5c(=O)[nH]c(N)nc54)O[C@@H]3COP(=O)(O)O[C@H]3C[C@H](n4cnc5c(N)ncnc54)O[C@@H]3COP(=O)(O)O[C@H]3C[C@H](n4cnc5c(N)ncnc54)O[C@@H]3COP(=O)(O)O[C@H]3C[C@H](n4cnc5c(=O)[nH]c(N)nc54)O[C@@H]3CO)O2)c(=O)nc1N`, the result in the test on Nucleic Acid [1], with Nucleic Acid [2] and in the test on Nucleic Acid [4] was Active. The result in the test with Nucleic Acid [3] was inactive.

Consider `Cc1cn([C@H]2C[C@H](OP(=O)(O)OC[C@H]3O[C@@H](n4ccc(N)nc4=O)C[C@@H]3OP(=O)(O)OC[C@H]3O[C@@H](n4cnc5c(N)ncnc54)C[C@@H]3OP(=O)(O)OC[C@H]3O[C@@H](n4cnc5c(N)ncnc54)C[C@@H]3OP(=O)(O)OC[C@H]3O[C@@H](n4cnc5c(=O)[nH]c(N)nc54)C[C@@H]3OP(=O)(O)OC[C@H](Cn3cnc4cc5c(N)ncnc5nc43)OP(=O)(O)OC[C@H]3O[C@@H](n4cnc5c(=O)[nH]c(N)nc54)C[C@@H]3OP(=O)(O)CC[C@H]3O[C@@H](n4cc(C)c(=O)[nH]c4=O)C[C@@H]3OP(=O)(O)OC[C@H]3O[C@@H](n4cnc5c(N)ncnc54)C[C@@H]3OP(=O)(O)OC[C@H]3O[C@@H](n4cc(C)c(=O)[nH]c4=O)C[C@@H]3OP(=O)(O)OC[C@H]3O[C@@H](n4ccc(N)nc4=O)C[C@@H]3OP(=O)(O)OC[C@H]3O[C@@H](n4cc(C)c(=O)[nH]c4=O)C[C@@H]3OP(=O)(O)OC[C@H]3O[C@@H](n4ccc(N)nc4=O)C[C@@H]3OP(=O)(O)OC[C@H]3O[C@@H](n4cc(C)c(=O)[nH]c4=O)C[C@@H]3O)[C@@H](COP(=O)(O)O[C@H]3C[C@H](n4cnc5c(=O)[nH]c(N)nc54)O[C@@H]3COP(=O)(O)O[C@H]3C[C@H](n4cnc5c(=O)[nH]c(N)nc54)O[C@@H]3COP(=O)(O)O[C@H]3C[C@H](n4cnc5c(N)ncnc54)O[C@@H]3COP(=O)(O)O[C@H]3C[C@H](n4cnc5c(N)ncnc54)O[C@@H]3COP(=O)(O)O[C@H]3C[C@H](n4cnc5c(=O)[nH]c(N)nc54)O[C@@H]3CO)O2)c(=O)nc1N`, for which the result in the test with Nucleic Acid [1], in the test with Nucleic Acid [3] and in the test on Nucleic Acid [4] was Active. Also, the outcome in the test with Nucleic Acid [2] was inactive.

Source of the values: ChEMBL document CHEMBL1944514, “Fluorescence detection of single nucleotide polymorphisms using nucleic acid probe containing tricyclic base-linked acyclonucleoside” (Bioorg Med Chem Lett, 2012).
